Results from patent EP0627444B1, “Monoacetic derivatives of the peptides leu-phe-ala and ala-leu-phe and their use in identifying and destroying tumour cells, viruses and virus-carrying cells” (priority 1993, dated 1998).
“And” between values parts separate entries of the source, which are not always exact repeats. Equal values may be shown once.

What was measured:
NK lymphocytes = test: Activation test for NK lymphocytes assessed by means of rosette formation; format: in vivo, female mice belonging to BALB/C strain; settings: Lot B controls, muramyl dipeptide only
Method: In carrying out such a test, all six isomers of the monoacetic derivative of the peptide were used, individually, both in normoergic (germ free) animals (lot A) and in animals previously immunized with muramyl dipeptide (lot B). The method and results of the test are hereinafter reported.
A number of groups, each consisting of 18 randomized animals, were inoculated with 0.1 ml/each of normal saline solution (controls) or 0.1 ml/each of monoacetic peptide in its 6 possible isomers dissolved in normal saline solution. The 17.5 mg/kg dose administered to the animals corresponds to 1/20 of the LD found with respect to these peptides.
Treated and control animals were sacrificed in groups of 6 on the 11th, 13th and 18th day after the inoculation of the normal saline solution or of the peptide. […]
Cell survival was assessed by means of the supravital staining technique with trypan blue. […]
FCS, at a 10% ratio, was added to the above mentioned suspension. Following 5 minutes of incubation at +37 °C and 5 minutes of centrifugation at 200 rpm, the samples were incubated at +4 °C for 18 hours prior to reading the results.
The lymphocytes encircled by 3 or more ram's erythrocytes were considered as rosette-forming lymphocytes. The significance was assessed by means of Student's "T" test. […]

Lewis Lung Carcinoma = test: Lewis Lung Carcinoma, third set of experiments (with MDP); format: in vivo, female mice C57BI/6
Method: The tested compound was Ala-Leu-Phe = P1 (SF080) (17.5 mg/kg) in the model of tumour disease caused by Lewis Lung Carcinoma. The compound was also evaluated in combination with muramyl dipeptide (MDP).
Animals: female mice C57BI/6 (Charles River) the average weight of which was 20g were used. The experiment involved overall 48 mice.
The tumour cells of LLC were obtained from the fourth passage of tumour cells. The total number of cells was 2 x 10^5 in 0.1 ml of Hanks solution. The cells were injected subcutaneously into axillary region.
The peptide P1 was administered i.p. in suspension with propylenglycol (0.1 ml/50 ml) in physiological solution. […] The same way of administration as in tested animals (i.p.) was used.
The animals were divided into 4 groups each having 12 mice. In groups 2 and 3 MDP was administered subcutaneously in a dose of 100 µg (0.5 ml physiol. solution per mouse). The protocol of the test is as follows.
The animals in all groups were observed daily for tumour growth. In the control group the tumour growth was so rapid and the animals were in such a condition that the experiment was terminated after 18 days from the administration of tumour cells. Mice were sacrificed and tumour mass was excised and weighed. Both lobes of lungs were inspected for the presence of metastases.
The following parameters have been evaluated in this experiment: • a) the percentage of animals not having the tumour • b) the average weight of the tumour • c) the percentage of animals with metastases in lungs • d) the average number of metastases in case of positive animals
Statistical analysis was performed by the method of one factorial analysis of variance (ANOVA), Dunnett's test and chi-square test. […]

[1] = group 2: MDP 100 µg s.c. day -3, day 18

muramyl dipeptide [MDP]
rosette formation after preventive immunization (NK lymphocytes): significant decrement | Weight of tumours, AVG (Lewis Lung Carcinoma; [1]): 3.24 g | Weight of tumours, SUM (Lewis Lung Carcinoma; [1]): 29.16 g | average number of metastases, AVG (Lewis Lung Carcinoma; [1]): 1 | metastase free animals (Lewis Lung Carcinoma; [1]): 64% | number of metastases, SUM (Lewis Lung Carcinoma; [1]): 9 | tumour-free animals (Lewis Lung Carcinoma; [1]): 18% | number of metastases (meta) (Lewis Lung Carcinoma; individual animals, lungs, group 2: MDP 100 µg s.c. day -3, day 18): 1 and 3 (2×) and 0 (7×) and 2 | Weight of tumours (Lewis Lung Carcinoma; individual animals, group 2: MDP 100 µg subcutaneously day -3, 18 days after tumour cells): 4.88 g and 4.48 g and 1.97 g and 3.13 g and 0 g (2×) and 3.57 g and 2.72 g and 1.81 g and 4.11 g and 2.49 g
